Laboratory results as given in ChEMBL document CHEMBL1212836, “Pyridazinopsoralens of wide chemotherapeutic interest” (Bioorg Med Chem, 2010).
Active and inactive are the calls of the source. The calls are words filed in the database; no cut-off is given here.

How the values were obtained:
HeLa [1] = assay: Cytotoxicity against human HeLa cells after 24 hrs by trypan blue assay in presence of 0.789 J cm-2 of UVA light; type: functional, cell-based; details: light or radiation study
HeLa [2] = assay: Cytotoxicity against human HeLa cells treated under dark condition after 24 hrs by trypan blue assay; type: functional, cell-based
HL-60 [3] = assay: Cytotoxicity against human HL60 cells after 24 hrs by trypan blue assay in presence of 0.789 J cm-2 of UVA light; type: functional, cell-based; details: HL-60, light or radiation study
HL-60 [4] = assay: Cytotoxicity against human HL60 cells treated under dark condition after 24 hrs by trypan blue assay; type: functional, cell-based; details: HL-60, 24 h
HL-60 [5] = assay: Cytotoxicity against human HL60 cells treated under dark condition after 72 hrs by trypan blue assay; type: functional, cell-based; details: HL-60, 72 h
Nucleic Acid [6] = assay: Binding affinity to Salmon testes DNA assessed as drug-DNA complex formation at drug/DNA ratio 0.02 to 0.08 by linear flow dichroism method; type: nucleic-acid assay; details: Salmonidae
[7] = biological target: DNA topoisomerase 2-alpha (Homo sapiens) (UniProt P11388); assay: Inhibition of human recombinant topoisomerase 2alpha-mediated relaxation of supercoiled pBR322 DNA after 60 mins by agarose gel electrophoresis
Nucleic Acid [8] = assay: Stabilization of supercoiled pBR322 DNA-human recombinant topoisomerase 2 complex assessed as linear DNA formation at 8 uM after 60 mins; type: nucleic-acid assay; details: Escherichia coli
Nucleic Acid [9] = assay: Stabilization of supercoiled pBR322 DNA-human recombinant topoisomerase 2 complex assessed as linear DNA formation at 5 to 50 uM after 60 mins; type: nucleic-acid assay; details: Escherichia coli
Nucleic Acid [10] = assay: Induction of Escherichia coli supercoiled pBR322 DNA cleavage at 5 uM after 30 mins by gel electrophoresis; type: nucleic-acid assay
Nucleic Acid [11] = assay: Induction of Escherichia coli supercoiled pBR322 DNA cleavage at 50 uM after 30 mins by gel electrophoresis; type: nucleic-acid assay
Nucleic Acid [12] = assay: Induction of Escherichia coli supercoiled pBR322 DNA cleavage at up to 200 uM after 30 mins by gel electrophoresis; type: nucleic-acid assay

Sequence of DNA topoisomerase 2-alpha (Homo sapiens) (P11388 whole entry): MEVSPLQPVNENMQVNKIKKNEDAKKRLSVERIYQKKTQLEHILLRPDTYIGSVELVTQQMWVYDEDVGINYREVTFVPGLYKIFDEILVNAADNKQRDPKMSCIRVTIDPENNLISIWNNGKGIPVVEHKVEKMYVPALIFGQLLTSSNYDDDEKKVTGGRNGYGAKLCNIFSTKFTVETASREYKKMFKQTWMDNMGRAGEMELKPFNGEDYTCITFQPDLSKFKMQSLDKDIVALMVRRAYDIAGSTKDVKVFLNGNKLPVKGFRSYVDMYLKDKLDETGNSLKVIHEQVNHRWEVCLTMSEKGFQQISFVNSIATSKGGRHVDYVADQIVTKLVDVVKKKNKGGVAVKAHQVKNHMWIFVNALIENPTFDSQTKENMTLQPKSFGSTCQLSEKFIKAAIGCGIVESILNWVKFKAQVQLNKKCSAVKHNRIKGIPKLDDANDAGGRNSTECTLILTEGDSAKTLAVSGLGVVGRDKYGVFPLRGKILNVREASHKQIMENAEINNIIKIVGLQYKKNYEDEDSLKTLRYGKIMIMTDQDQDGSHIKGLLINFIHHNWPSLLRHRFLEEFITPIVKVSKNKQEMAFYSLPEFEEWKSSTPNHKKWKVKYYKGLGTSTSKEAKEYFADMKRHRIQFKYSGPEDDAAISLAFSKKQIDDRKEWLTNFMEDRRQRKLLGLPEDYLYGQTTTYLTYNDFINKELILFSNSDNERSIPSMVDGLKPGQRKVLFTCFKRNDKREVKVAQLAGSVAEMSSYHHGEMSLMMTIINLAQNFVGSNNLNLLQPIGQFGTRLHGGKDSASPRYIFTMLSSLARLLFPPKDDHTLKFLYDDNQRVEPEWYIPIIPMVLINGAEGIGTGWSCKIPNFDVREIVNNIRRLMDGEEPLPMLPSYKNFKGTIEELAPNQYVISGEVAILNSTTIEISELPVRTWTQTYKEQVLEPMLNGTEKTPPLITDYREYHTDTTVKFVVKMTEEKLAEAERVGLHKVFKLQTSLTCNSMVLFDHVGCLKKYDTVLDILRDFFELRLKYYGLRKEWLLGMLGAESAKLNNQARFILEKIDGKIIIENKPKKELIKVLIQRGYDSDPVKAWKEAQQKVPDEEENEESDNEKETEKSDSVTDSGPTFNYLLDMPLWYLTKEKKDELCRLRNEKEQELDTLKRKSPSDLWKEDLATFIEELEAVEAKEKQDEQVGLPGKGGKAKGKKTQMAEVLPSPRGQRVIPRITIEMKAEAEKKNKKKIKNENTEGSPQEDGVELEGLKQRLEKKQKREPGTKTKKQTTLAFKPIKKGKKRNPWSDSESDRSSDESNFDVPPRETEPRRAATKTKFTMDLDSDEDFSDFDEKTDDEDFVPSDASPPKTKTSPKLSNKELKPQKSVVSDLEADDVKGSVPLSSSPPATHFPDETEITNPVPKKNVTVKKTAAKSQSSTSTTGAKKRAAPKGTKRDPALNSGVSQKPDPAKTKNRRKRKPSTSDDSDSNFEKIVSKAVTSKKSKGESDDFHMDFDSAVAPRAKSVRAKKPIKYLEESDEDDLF

Row | SMILES | Activity (Nucleic Acid [6]) | Activity [7] | Activity (Nucleic Acid [8]) | Activity (Nucleic Acid [9]) | Activity (Nucleic Acid [10]) | Activity (Nucleic Acid [11]) | Activity (Nucleic Acid [12]) | IC50 (HeLa [1]) [µM] | IC50 (HeLa [2]) [µM] | IC50 (HL-60 [3]) [µM] | IC50 (HL-60 [4]) [µM] | IC50 (HL-60 [5]) [µM]
1 | COc1c2occc2cc2ccc(=O)oc12 [METHOXSALEN] | – | – | – | – | – | – | – | – | – | – | > 20 | > 20
2 | CCN(CC)CCCNC(=O)c1nncc2oc3c(C)c4oc(=O)cc(C)c4cc3c12 | Active | Dose-dependent effect | – | – | – | Active | – | 7.4 | 11.5 | 2.2 | 2.1 | 0.9
3 | Cc1cc(=O)oc2c(C)c3oc4cnncc4c3cc12 | Active | Dose-dependent effect | – | – | – | – | inactive | 3.8 | 8.5 | 4.1 | 3.9 | 2.6
4 | COc1cc(NS(C)(=O)=O)ccc1Nc1c2ccccc2nc2ccccc12 | – | – | Active | – | – | – | – | – | – | – | – | –

Now from value to compound, other results behind:

Row | Activity (Nucleic Acid [6]) | Activity [7] | Activity (Nucleic Acid [8]) | Activity (Nucleic Acid [9]) | Activity (Nucleic Acid [10]) | Activity (Nucleic Acid [11]) | Activity (Nucleic Acid [12]) | SMILES | IC50 (HeLa [1]) [µM] | IC50 (HeLa [2]) [µM] | IC50 (HL-60 [3]) [µM] | IC50 (HL-60 [4]) [µM] | IC50 (HL-60 [5]) [µM]
5 | Active | – | – | – | – | – | – | CCN(CC)CCNC(=O)c1nnc(C(=O)NCCN(CC)CC)c2c1oc1c(C)c3oc(=O)cc(C)c3cc12 | 4.4 | 17.2 | 3.5 | 1.2 | 0.57
6 | Active | Dose-dependent effect | Active | inactive | Active | – | – | CCN(CC)CCCNC(=O)c1nnc(C(=O)NCCCN(CC)CC)c2c1oc1c(C)c3oc(=O)cc(C)c3cc12 | 3.5 | 14.7 | 0.8 | 0.9 | 0.37
7 | Active | – | – | – | – | – | – | Cc1cc(=O)oc2c(C)c3oc4c(C(=O)NCCCN(C)C)nnc(C(=O)NCCCN(C)C)c4c3cc12 | 3.7 | 11.5 | 2.6 | 3.8 | 0.61
8 | Active | – | – | – | – | – | – | Cc1cc(=O)oc2c(C)c3oc4c(C(=O)NCCN(C)C)nnc(C(=O)NCCN(C)C)c4c3cc12 | 2.4 | 11.9 | 1.3 | 0.9 | 0.41
